By Ki is commonly meant the dissociation constant of the complex between target and ligand, obtained from inhibition or displacement.

Assay [1] addresses T1, Gastrin/cholecystokinin type B receptor (Canis lupus familiaris, UniProt P30552).
T1 sequence (P30552 whole entry): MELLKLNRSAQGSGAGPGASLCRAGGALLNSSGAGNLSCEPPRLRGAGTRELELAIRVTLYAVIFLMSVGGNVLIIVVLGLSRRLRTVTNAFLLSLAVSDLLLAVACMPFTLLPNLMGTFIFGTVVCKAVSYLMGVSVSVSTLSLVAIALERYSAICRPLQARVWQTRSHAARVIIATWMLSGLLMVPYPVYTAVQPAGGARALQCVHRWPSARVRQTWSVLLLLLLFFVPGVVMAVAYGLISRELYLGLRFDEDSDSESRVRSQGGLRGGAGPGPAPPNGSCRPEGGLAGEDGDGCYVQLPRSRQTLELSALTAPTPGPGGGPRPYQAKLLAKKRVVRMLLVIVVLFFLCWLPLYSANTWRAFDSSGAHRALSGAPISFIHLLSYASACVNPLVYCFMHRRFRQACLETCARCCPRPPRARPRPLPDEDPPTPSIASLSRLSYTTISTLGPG
The assay can be described thus: Displacement of [125I]BH-[…] from CCK2 receptor in canine gastric mucosa. Format: tissue-based. Background: Loss of bound radioactivity is the signal in a displacement assay; it reports binding, not function.

Assay [2] addresses T2, Cholecystokinin receptor type A (Homo sapiens, UniProt P32238).
T2 sequence (P32238 whole entry): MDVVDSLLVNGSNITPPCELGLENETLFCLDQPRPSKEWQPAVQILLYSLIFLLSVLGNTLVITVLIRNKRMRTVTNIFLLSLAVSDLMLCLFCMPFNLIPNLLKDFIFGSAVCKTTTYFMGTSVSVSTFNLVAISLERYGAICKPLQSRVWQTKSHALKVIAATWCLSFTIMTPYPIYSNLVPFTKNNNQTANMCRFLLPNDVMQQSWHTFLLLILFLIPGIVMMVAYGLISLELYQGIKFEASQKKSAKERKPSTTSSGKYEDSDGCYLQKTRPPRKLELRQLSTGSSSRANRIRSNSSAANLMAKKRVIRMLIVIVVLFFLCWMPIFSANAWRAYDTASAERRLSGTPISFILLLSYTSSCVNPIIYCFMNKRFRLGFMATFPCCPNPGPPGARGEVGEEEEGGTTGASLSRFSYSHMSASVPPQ
Kind of assay: Displacement of [3H]L-364718 from human recombinant CCK1 receptor expressed in CHOK1 cells. Format: cell-based, CHO-K1.

For assay [3], the target named is T3, Gastrin/cholecystokinin type B receptor (Homo sapiens, UniProt P32239).
T3 sequence (P32239 whole entry): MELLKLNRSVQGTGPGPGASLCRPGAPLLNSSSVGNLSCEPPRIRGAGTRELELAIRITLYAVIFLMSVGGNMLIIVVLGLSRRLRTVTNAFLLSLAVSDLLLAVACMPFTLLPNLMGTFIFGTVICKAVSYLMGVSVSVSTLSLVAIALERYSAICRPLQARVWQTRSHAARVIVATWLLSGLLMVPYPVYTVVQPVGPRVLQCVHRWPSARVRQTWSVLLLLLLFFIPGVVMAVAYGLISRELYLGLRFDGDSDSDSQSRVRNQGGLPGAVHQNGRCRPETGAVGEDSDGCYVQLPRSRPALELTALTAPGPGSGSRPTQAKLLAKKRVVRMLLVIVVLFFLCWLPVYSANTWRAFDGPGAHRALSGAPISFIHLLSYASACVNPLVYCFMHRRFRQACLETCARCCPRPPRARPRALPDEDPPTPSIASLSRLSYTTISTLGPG
The assay can be described thus: Displacement of [125I]BH-CCK-8S from human recombinant CCK2 receptor expressed in NIH3T3 cells.

Assay [4] deals with T2, Cholecystokinin receptor type A. The assay can be described thus: Displacement of [3H]L-364718 from human recombinant CCK1 receptor expressed in PC3 cells. Type of assay: cell-based, PC-3.
Assay [5] has as its target T4, Gastrin/cholecystokinin type B receptor (Rattus norvegicus, UniProt P30553).
T4 sequence (P30553 whole entry): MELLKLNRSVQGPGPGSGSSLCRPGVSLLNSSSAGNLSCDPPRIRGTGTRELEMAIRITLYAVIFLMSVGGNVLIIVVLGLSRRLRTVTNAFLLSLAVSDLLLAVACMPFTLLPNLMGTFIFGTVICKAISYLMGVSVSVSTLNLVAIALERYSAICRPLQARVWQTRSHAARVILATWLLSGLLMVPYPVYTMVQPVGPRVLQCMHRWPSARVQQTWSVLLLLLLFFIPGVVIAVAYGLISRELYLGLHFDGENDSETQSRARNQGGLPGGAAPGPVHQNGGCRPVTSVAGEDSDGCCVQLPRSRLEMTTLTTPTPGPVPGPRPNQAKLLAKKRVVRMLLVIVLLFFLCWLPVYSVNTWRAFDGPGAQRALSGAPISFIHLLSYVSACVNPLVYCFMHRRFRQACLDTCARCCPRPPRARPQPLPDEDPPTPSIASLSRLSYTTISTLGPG
The assay can be described thus: Antagonist activity at CCK2 receptor in perfused rat stomach assessed as inhibition of pentagastrin-stimulated gastric acid secretion. Type of assay: functional, tissue-based. Particulars: read-out: pA2 (converted).

`CC(C)(C)C(=O)CN1C(=O)N(CC(=O)Nc2ccc3ccn(CC(=O)O)c3c2)N=C(C2CCCCC2)c2ccccc21`: the inhibitory constant (Ki) in assay [1] is 0.0024 µM; in assay [2] it was 0.55 µM; in assay [3], 0.000295 µM.

In the case of `CC(C)(C)C(=O)CN1C(=O)N(CC(=O)Nc2cccc(C(=O)O)c2)N=C(C2CCCCCC2)c2ccccc21`, the Ki was 5.75 µM in assay [4] and 0.00479 µM in assay [3].

Consider `CC(C)(C)C(=O)CN1C(=O)N(CC(=O)Nc2ccc3c(ccn3CC(=O)O)c2)N=C(C2CCCCC2)c2ccccc21`, for which the Ki in assay [2] is 2.51 µM; in assay [3], 0.000776 µM.

Take `CC(C)(C)C(=O)CN1C(=O)N(CC(=O)Nc2cccc(CCC(=O)O)c2)N=C(C2CCCCC2)c2ccccc21`: the inhibition constant (Ki) in assay [2] was above 10 µM; in assay [3], 0.00186 µM.

Consider `CN(CC(=O)O)c1cccc(NC(=O)CN2N=C(C3CCCCC3)c3ccccc3N(CC(=O)C(C)(C)C)C2=O)c1`, for which the Ki in assay [2] is 6.46 µM; in assay [3], 0.00107 µM.

In the case of `CC(C)(C)C(=O)CN1C(=O)N(CC(=O)Nc2cccc(-c3cn(CC(=O)O)cn3)c2)N=C(C2CCCCC2)c2ccccc21`, the Ki in assay [2] is 1.7 µM; in assay [3] it was 0.00407 µM.

`CC(C)(C)C(=O)CN1C(=O)N(CC(=O)Nc2cccc3c2ccn3CC(=O)O)N=C(C2CCCCC2)c2ccccc21`: the figures for the Ki in assay [2] and in assay [3] were above 10 µM and 0.00603 µM, respectively.

Turning to `CC(C)(C)C(=O)CN1C(=O)N(CC(=O)Nc2cccc(-c3ccc(C(=O)O)o3)c2)N=C(C2CCCCC2)c2ccccc21`, the results for the inhibition constant Ki in assay [2] and in assay [3] were 0.457 µM and 0.000245 µM, respectively.

For `CC(C)(C)C(=O)CN1C(=O)N(CC(=O)Nc2cccc(C(=O)NS(C)(=O)=O)c2)N=C(C2CCCCC2)c2ccccc21`, the Ki is 2.95 µM in assay [4] and 0.00389 µM in assay [3].

In the case of `CC(C)CCN1C(=O)N(CC(=O)Nc2cccc(C(=O)O)c2)N=C(C2CCCCC2)c2ccccc21`, the Ki was above 10 µM in assay [4] and 0.0204 µM in assay [3].

Consider `CC(C)(C)C(=O)CN1C(=O)N(CC(=O)Nc2cccc3c2cnn3CC(=O)O)N=C(C2CCCCC2)c2ccccc21`, for which the inhibition constant Ki in assay [2] was 6.92 µM; in assay [3] it was 0.00275 µM.

For the molecule `O=C(CN1N=C(C2CCCCC2)c2ccccc2N(CC(=O)C23CC4CC(CC(C4)C2)C3)C1=O)Nc1cccc(C(=O)O)c1`, the Ki was 1.91 µM in assay [4] and 0.00562 µM in assay [3].

Regarding `O=C(O)CCc1cccc(NC(=O)CN2N=C(C3CCCCC3)c3ccccc3N(CC(=O)C3CCCC3)C2=O)c1`, the Ki in assay [1] is 0.00427 µM; in assay [2] it was 2.51 µM; in assay [3], 0.000339 µM.

As to `CN(c1cccc(NC(=O)CN2N=C(C3CCCCC3)c3ccccc3N(CC(=O)C(C)(C)C)C2=O)c1)c1nn[nH]n1`, the Ki in assay [1] is 0.00468 µM; in assay [4] it was 6.46 µM; in assay [3], 0.00195 µM. The Kb in assay [5] is 0.024 µM.

Take `CC(C)(C)C(=O)CN1C(=O)N(CC(=O)Nc2cccc(C(=O)O)c2)N=C(C2CCCCC2)c2ccccc21`: the Ki in assay [4] was above 10 µM.

As for `CC(C)(C)C(=O)CN1C(=O)N(CC(=O)Nc2cccc(Cc3nnn[nH]3)c2)N=C(C2CCCCC2)c2ccccc21`, the Ki in assay [2] is above 10 µM; in assay [3] it was 0.00468 µM.

For `CC(C)(C)C(=O)CN1C(=O)N(CC(=O)Nc2cccc(-c3nc(C(=O)O)co3)c2)N=C(C2CCCCC2)c2ccccc21`, the Ki in assay [2] was 0.661 µM; in assay [3], 0.000363 µM.

Take `O=C(CN1N=C(C2CCCCC2)c2ccccc2N(CC(=O)N2CCCC2)C1=O)Nc1cccc(C(=O)O)c1`: the inhibition constant Ki in assay [4] is above 10 µM; in assay [3], 0.0162 µM.

For `CC(C)(C)C(=O)CN1C(=O)N(CC(=O)Nc2ccc3c(cnn3CC(=O)O)c2)N=C(C2CCCCC2)c2ccccc21`, the Ki in assay [2] is 8.13 µM; in assay [3] it was 0.00933 µM.

As to `CC(C)(C)C(=O)CN1C(=O)N(CC(=O)Nc2cccc(NCC(=O)O)c2)N=C(C2CCCCC2)c2ccccc21`, the Ki in assay [4] is 8.51 µM; in assay [3], 0.00617 µM.

As for `CC(C)(C)C(=O)CN1C(=O)N(CC(=O)Nc2cccc(OCC(=O)O)c2)N=C(C2CCCCC2)c2ccccc21`, the Ki in assay [4] is 4.07 µM; in assay [3] it was 0.0055 µM.

Consider `CC(C)(C)C(=O)CN1C(=O)N(CC(=O)Nc2cccc(C(=O)O)c2)N=C(C2CCCC2)c2ccccc21`, for which the Ki in assay [4] was above 10 µM; in assay [3], 0.024 µM.

Consider `CC(C)(C)C(=O)CN1C(=O)N(CC(=O)Nc2cccc(C(=O)O)c2)N=C(C23CC4CC(CC(C4)C2)C3)c2ccccc21`, for which the values for the Ki in assay [4] and in assay [3] were 0.372 µM and 0.024 µM, respectively.

In the case of `Cc1ccccc1C(=O)CN1C(=O)N(CC(=O)Nc2cccc(C(=O)O)c2)N=C(C2CCCCC2)c2ccccc21`, the results for the Ki in assay [1], in assay [4] and in assay [3] were 0.0263 µM, above 10 µM and 0.00759 µM, respectively.

On to `O=C(CN1N=C(C2CCCCC2)c2ccccc2N(CC(=O)C2CCCCC2)C1=O)Nc1cccc(C(=O)O)c1`, for which the Ki was 7.94 µM in assay [2] and 0.000794 µM in assay [3].

Turning to `CN1C(=O)N(CC(=O)Nc2cccc(C(=O)O)c2)N=C(C2CCCCC2)c2ccccc21`, the results for the Ki in assay [4] and in assay [3] were above 10 µM and 1.2 µM, respectively.

`O=C(O)CSc1cccc(NC(=O)CN2N=C(C3CCCCC3)c3ccccc3N(CC(=O)C3CCCC3)C2=O)c1`: the values for the Ki in assay [1] and in assay [2] were 0.00479 µM and 2.09 µM, respectively.

With `O=C(O)Cc1cccc(NC(=O)CN2N=C(C3CCCCC3)c3ccccc3N(CC(=O)C3CCCC3)C2=O)c1`, the Ki in assay [1] is 0.00631 µM; in assay [2], above 10 µM; in assay [3], 0.000282 µM.

In the case of `CC(C)(C)C(=O)CN1C(=O)N(CC(=O)Nc2ccc3cnn(CC(=O)O)c3c2)N=C(C2CCCCC2)c2ccccc21`, the Ki was 2.14 µM in assay [2] and 0.000832 µM in assay [3].

As for `CC(C)(C)C(=O)CN1C(=O)N(CC(=O)Nc2cccc(-c3cccc(C(=O)O)c3)c2)N=C(C2CCCCC2)c2ccccc21`, the inhibition constant Ki in assay [2] was 0.55 µM; in assay [3] it was 0.00158 µM.

For `CC(C)(C)C(=O)CN1C(=O)N(CC(=O)Nc2cccc(SCc3nn[nH]n3)c2)N=C(C2CCCCC2)c2ccccc21`, the inhibition constant Ki is 0.389 µM in assay [2] and 0.000708 µM in assay [3].

As for `CC(C)(C)C(=O)CN1C(=O)N(CC(=O)Nc2cccc(-c3nn[nH]n3)c2)N=C(C2CCCCC2)c2ccccc21`, the results for the Ki in assay [1], in assay [2] and in assay [3] were 0.00316 µM, 1.74 µM and 0.001 µM, respectively. In addition, the Kb in assay [5] was 0.00776 µM.

For `CC(C)(C)C(=O)CN1C(=O)N(CC(=O)Nc2cccc(S(=O)(=O)CC(=O)O)c2)N=C(C2CCCCC2)c2ccccc21`, the Ki was above 10 µM in assay [4] and 0.00427 µM in assay [3].

In the case of `CC(=O)CN1C(=O)N(CC(=O)Nc2cccc(C(=O)O)c2)N=C(C2CCCCC2)c2ccccc21`, the Ki in assay [4] was above 10 µM; in assay [3], 0.331 µM.

For `CC(C)(C)C(=O)CN1C(=O)N(CC(=O)Nc2ccc3ncn(CC(=O)O)c3c2)N=C(C2CCCCC2)c2ccccc21`, the Ki was above 10 µM in assay [2] and 0.017 µM in assay [3].

As to `CC(C)(C)C(=O)CN1C(=O)N(CC(=O)Nc2cccc(-c3csc(C(=O)O)n3)c2)N=C(C2CCCCC2)c2ccccc21`, the figures for the Ki in assay [2] and in assay [3] were above 10 µM and 0.000661 µM, respectively.

With `CCOCCN1C(=O)N(CC(=O)Nc2cccc(C(=O)O)c2)N=C(C2CCCCC2)c2ccccc21`, the Ki in assay [3] is 0.49 µM.

In the case of `CC(C)(C)C(=O)CN1C(=O)N(CC(=O)Nc2cccc(-c3cccn3CC(=O)O)c2)N=C(C2CCCCC2)c2ccccc21`, in assay [3], the Ki is 0.000912 µM.

For the origin of these results see ChEMBL document CHEMBL1145380, “Optimization of 1,3,4-benzotriazepine-based CCK(2) antagonists to obtain potent, orally active inhibitors of gastrin-mediated gastric acid secretion” (J Med Chem, 2007).
